Reference: US9290478B2, “Substituted quinoxalines as FGFR kinase inhibitors” (ASTEX THERAPEUTICS LTD, priority 2010, dated 2016)

Assays:
FGFR3 (h) = FGFR3 (h) (Homo sapiens, UniProt P22607); experiment: FGFR3 (enzymatic assay), TR-FRET; format: biochemical; conditions: 25 μM ATP; read-out: FGFR3 pIC50 (converted)
Protocol: (§1) In a final reaction volume of 30 μL, FGFR3 (h) (40 ng/ml) was incubated with 50 mM HEPES pH 7.5, 6 mM MnCl2, 1 mM DTT, 0.1 mM Na3VO4, 0.01% Triton-X-100, 500 nM Btn-Flt3 and 25 μM ATP in the presence of compound (1% DMSO final). After incubation for 60 minutes at room temperature the reaction was stopped with 2.27 nM EU-anti P-Tyr, 7 mM EDTA, 31.25 nM SA-XL-665 and 0.02% BSA which was present for 60 minutes at room temperature. Time-Resolved Fluorescence Resonance Energy Transfer (TR-FRET) signal (ex340 nm. Em 620 nm, em 655 nm) was measured afterwards and results are expressed in RFU (Relative Fluorescence Units). In this assay, the inhibitory effect of different compound concentrations (range 10 μM to 0.1 nM) was determined and used to calculate an IC50 (M) and pIC50 (−log IC50) value.

KDR (h) (VEGFR2) = KDR (h) (VEGFR2) (Homo sapiens, UniProt P35968); experiment: KDR (VEGFR2) (enzymatic assay), TR-FRET; format: biochemical; conditions: 3 μM ATP; for IC50: read-out: VEGFR2 (KDR) pIC50 (converted)
Protocol: KDR (VEGFR2) (Enzymatic Assay)
as §1, with “30 μL, KDR (h) (150” for “30 μL, FGFR3 (h) (40”, “KDR (h) (150 ng/ml) was” for “FGFR3 (h) (40 ng/ml) was”, “Btn-Flt3 and 3 μM ATP” for “Btn-Flt3 and 25 μM ATP”, “incubation for 120 minutes at” for “incubation for 60 minutes at”

[1] = molecular target: T1, Ba/F3-Flt3-transfected cells (Homo sapiens, UniProt P36888, cells depend on it, form not given); experiment: Ba/F3-Flt3 (minus IL3 or plus IL3) cellular proliferation assay; format: cell-based; conditions: minus IL3
T1 construct: BAF3-FLT3 (MIN IL3) pIC50; other: minus IL3
T1 sequence (P36888 1-993): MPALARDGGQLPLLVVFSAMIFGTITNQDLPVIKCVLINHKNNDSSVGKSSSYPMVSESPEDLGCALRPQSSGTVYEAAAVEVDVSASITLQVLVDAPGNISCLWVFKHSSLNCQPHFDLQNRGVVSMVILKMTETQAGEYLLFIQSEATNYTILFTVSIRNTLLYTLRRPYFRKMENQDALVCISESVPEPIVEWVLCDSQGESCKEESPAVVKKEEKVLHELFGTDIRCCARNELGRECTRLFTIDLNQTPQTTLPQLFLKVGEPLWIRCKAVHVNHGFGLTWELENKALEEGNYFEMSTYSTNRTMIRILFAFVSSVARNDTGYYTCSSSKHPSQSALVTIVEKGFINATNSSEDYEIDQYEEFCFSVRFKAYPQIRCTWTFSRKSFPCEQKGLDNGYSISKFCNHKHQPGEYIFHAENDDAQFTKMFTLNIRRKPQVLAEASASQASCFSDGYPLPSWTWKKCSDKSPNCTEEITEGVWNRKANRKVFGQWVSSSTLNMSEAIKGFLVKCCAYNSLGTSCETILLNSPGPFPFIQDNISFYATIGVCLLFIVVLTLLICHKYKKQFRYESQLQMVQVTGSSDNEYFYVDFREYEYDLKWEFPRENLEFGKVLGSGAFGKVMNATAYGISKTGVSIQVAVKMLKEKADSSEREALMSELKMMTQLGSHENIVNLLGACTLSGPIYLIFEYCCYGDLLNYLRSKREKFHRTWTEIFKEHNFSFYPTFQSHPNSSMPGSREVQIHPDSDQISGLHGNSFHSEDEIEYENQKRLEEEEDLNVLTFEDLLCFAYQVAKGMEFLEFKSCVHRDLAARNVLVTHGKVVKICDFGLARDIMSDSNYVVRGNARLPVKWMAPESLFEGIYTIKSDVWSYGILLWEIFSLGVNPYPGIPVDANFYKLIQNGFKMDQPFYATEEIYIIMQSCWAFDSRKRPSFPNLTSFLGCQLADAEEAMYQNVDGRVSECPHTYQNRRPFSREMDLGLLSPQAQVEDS
Protocol: (§2) Ba/F3-Flt3 (Minus IL3 or Plus IL3) (Cellular Proliferation Assay)
(§3) In a 384 well plate, 100 nl of compound dilution in DMSO was sprayed before adding 50 μl cell culture medium (phenol red free RPMI-1640, 10% FBS, 2 mM L-Glutamine and 50 μg/ml Gentamycin) containing 20000 cells per well of Ba/F3-Flt3-transfected cells. Cells were put in an incubator at 37° C. and 5% CO2. After 24 hours, 10 μl of Alamar Blue solution (0.5 mM K3Fe(CN)6, 0.5 mM K4Fe(CN)6, 0.15 mM Resazurin and 100 mM Phosphate Buffer) was added to the wells, incubated for 4 hours at 37° C. and 5% CO2 before RFU's (Relative Fluorescence Units) (ex. 540 nm., em. 590 nm.) were measured in a fluororescence plate reader.
(§4) In this assay, the inhibitory effect of different compound concentrations (range 10 μM to 0.1 nM) was determined and used to calculate an IC50 (M) and pIC50 (−log IC50) value.
(§5) As a counterscreen the same experiment was performed in the presence of 10 ng/ml murine IL3.

[2] = tested on: Ba/F3-Flt3-transfected cells; experiment: as above; format: cell-based; conditions: plus 10 ng/ml murine IL3 (counterscreen); for IC50: 24 h, read-out: BAF3_FLT3 (PLUS IL3) pIC50 (converted)
Protocol: as §2, §3, §4, §5

Chain of FGFR3 (h) (P22607 23-806): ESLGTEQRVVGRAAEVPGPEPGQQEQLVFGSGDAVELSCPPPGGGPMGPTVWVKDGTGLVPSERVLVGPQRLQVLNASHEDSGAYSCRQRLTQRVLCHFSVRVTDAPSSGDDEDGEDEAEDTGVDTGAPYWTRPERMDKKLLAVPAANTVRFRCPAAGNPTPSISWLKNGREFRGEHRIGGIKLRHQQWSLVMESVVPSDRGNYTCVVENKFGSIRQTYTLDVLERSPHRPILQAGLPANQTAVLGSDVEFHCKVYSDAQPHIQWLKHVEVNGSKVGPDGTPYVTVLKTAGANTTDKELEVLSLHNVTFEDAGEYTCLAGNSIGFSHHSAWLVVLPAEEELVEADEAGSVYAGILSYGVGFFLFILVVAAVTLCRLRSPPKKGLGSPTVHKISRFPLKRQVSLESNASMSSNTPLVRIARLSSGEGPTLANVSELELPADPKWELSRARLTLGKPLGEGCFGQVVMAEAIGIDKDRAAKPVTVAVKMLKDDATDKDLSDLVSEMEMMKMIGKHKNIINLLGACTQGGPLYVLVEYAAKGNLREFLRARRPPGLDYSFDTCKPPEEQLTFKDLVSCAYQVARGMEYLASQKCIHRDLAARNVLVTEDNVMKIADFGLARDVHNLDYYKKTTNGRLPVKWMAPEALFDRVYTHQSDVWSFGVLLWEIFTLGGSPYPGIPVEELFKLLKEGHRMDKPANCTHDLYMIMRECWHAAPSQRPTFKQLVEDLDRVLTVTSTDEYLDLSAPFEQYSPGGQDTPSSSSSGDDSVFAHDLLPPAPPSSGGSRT
Chain of KDR (h) (VEGFR2) (P35968 20-1356): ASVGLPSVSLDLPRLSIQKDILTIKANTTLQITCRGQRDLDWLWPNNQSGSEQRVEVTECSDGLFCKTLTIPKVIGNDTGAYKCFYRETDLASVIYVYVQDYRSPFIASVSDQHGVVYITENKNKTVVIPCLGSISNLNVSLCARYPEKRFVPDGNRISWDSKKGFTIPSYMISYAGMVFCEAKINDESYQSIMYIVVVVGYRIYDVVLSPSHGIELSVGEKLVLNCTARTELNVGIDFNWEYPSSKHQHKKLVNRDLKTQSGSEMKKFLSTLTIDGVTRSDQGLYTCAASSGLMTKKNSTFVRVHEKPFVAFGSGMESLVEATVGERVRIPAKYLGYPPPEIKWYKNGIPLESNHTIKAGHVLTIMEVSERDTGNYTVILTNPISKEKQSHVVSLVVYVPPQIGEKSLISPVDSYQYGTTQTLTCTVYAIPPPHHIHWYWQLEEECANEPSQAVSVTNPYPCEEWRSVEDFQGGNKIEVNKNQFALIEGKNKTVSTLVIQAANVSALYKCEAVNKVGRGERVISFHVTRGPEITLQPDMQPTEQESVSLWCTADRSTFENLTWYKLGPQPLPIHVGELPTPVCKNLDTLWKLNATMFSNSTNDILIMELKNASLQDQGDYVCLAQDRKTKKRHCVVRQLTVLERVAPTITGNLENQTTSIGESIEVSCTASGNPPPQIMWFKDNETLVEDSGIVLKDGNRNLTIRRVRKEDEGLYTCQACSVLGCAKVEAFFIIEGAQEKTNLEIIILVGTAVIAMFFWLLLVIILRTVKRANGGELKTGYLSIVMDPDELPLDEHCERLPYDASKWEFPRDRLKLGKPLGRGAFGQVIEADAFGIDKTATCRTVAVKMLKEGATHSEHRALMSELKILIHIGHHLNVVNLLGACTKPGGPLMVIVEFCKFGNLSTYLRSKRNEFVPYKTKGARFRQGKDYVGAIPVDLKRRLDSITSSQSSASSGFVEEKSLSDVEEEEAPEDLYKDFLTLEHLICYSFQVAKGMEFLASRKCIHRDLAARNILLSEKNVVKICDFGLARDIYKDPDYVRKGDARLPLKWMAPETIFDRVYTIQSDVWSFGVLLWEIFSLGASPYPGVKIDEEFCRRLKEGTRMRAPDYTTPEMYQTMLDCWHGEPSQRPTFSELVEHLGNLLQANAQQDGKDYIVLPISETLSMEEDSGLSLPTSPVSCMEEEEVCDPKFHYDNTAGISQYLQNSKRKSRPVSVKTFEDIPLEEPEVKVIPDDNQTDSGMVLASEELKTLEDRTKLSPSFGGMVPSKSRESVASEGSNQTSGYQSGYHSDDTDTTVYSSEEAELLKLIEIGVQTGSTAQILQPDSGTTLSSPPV

Compound | IC50 (FGFR3 (h)) [nM] | IC50 (KDR (h) (VEGFR2)) [nM] | BAF3-FLT3 (MIN IL3) pIC50 [1] | IC50 [2] [nM] | BAF3_FLT3 (PLUS IL3) pIC50 [2] | VEGFR2 (KDR) pIC50 (KDR (h) (VEGFR2))
COc1cc(OC)cc(C(O)(CNCCNC(C)C)c2ccc3ncc(-c4cnn(C)c4)nc3c2)c1 (single isomer, unassigned) [Compound 5] | 575 | > 1000 | <5 | > 10000 | – | –
COc1cc(OC)cc(C(O)(CNCCNC(C)C)c2ccc3ncc(-c4cnn(C)c4)nc3c2)c1 (single isomer, unassigned) [Compound 6] | 676 | – | <5 | – | – | –
COc1cc(OC)cc(C(CCNC(C)C)c2ccc3ncc(-c4cnn(C)c4)nc3c2)c1 (single isomer, unassigned) [Compound 19a] | 21.4 | > 1000 | <5 | > 10000 | – | –
COc1cc(OC)cc(C(NCCNC(C)C)c2ccc3ncc(-c4cnn(C)c4)nc3c2)c1.Cl (single isomer, unassigned) [Compound 24] | 257 | > 1000 | <5 | > 10000 | – | –
COc1cc(OC)cc(C(CCNC(C)C)c2ccc3ncc(-c4cnn(C)c4)nc3c2)c1 (single isomer, unassigned) [Compound 32a] | ~912 | > 10000 | <5 | – | <5 | –
CNCC(O)(c1cc(OC)cc(OC)c1)c1ccc2ncc(-c3cnn(C)c3)nc2c1.Cl (single isomer, unassigned) [Compound 37] | 537 | > 1000 | <5 | > 10000 | – | –
CNCC(O)(c1cc(OC)cc(OC)c1)c1ccc2ncc(-c3cnn(C)c3)nc2c1.Cl (single isomer, unassigned) [Compound 38] | > 1000 | – | <5 | – | <5 | <6
COc1cc(OC)cc(C(NCCNC(C)C)c2ccc3ncc(-c4cnn(C)c4)nc3c2)c1.Cl (single isomer, unassigned) [Compound 39] | > 1000 | – | <5 | – | <5 | <6
COc1cc(OC)cc(C(=O)c2ccc3ncc(-c4cnn(C)c4)nc3c2)c1 [Compound 2] | 66.1 | 708 | <5 | > 10000 | – | –
COc1cc(OC)cc(/C(=C/C#N)c2ccc3ncc(-c4cnn(C)c4)nc3c2)c1 [Compound 3] | 2190 | 3980 | <5 | > 10000 | – | –
COc1cc(OC)cc(/C(=C\C#N)c2ccc3ncc(-c4cnn(C)c4)nc3c2)c1 [Compound 4] | 36.3 | 661 | 5.29 | > 10000 | – | –
COc1cc(OC)cc(C(CCN2CCCC2=O)c2ccc3ncc(-c4cnn(C)c4)nc3c2)c1.Cl (stereo not drawn) [Compound 7] | ~12.6 | 347 | <5 | > 10000 | – | –
COc1cc(OC)cc(/C(=C\CNC(C)C)c2ccc3ncc(-c4cnn(C)c4)nc3c2)c1 [Compound 8, {(Z)-3-(3,5-Dimethoxy-phenyl)-3-[3-(1-methyl-1H-pyrazol-4-yl)-quinoxalin-6-yl]-allyl}-isopropyl-amine] | 8.71 | 389 | 5.09 | ~8710 | – | –
COc1cc(OC)cc(/C(=C/CNC(C)C)c2ccc3ncc(-c4cnn(C)c4)nc3c2)c1 [Compound 9] | 123 | 4470 | ~5.05 | > 10000 | – | –
COc1cc(OC)cc(/C(=C\CN(C)C)c2ccc3ncc(-c4cnn(C)c4)nc3c2)c1 [Compound 10, {(Z)-3-(3,5-Dimethoxy-phenyl)-3-[3-(1-methyl-1H-pyrazol-4-yl)-quinoxalin-6-yl]-allyl}-dimethyl-amine] | 9.12 | > 1000 | <5 | > 10000 | – | –
COc1cc(OC)cc(/C(=C\CNCC(F)(F)F)c2ccc3ncc(-c4cnn(C)c4)nc3c2)c1 [Compound 14, {(Z)-3-(3,5-Dimethoxy-phenyl)-3-[3-(1-methyl-1H-pyrazol-4-yl)-quinoxalin-6-yl]-allyl}-(2,2,2-trifluoro-ethyl)-amine] | 4.68 | 245 | <5 | > 10000 | – | –
COc1cc(OC)cc(C(CC#N)c2ccc3ncc(-c4cnn(C)c4)nc3c2)c1 (stereo not drawn) [Compound 18] | 43.7 | > 1000 | <5 | > 10000 | – | –
COc1cc(OC)cc(C(CCN)c2ccc3ncc(-c4cnn(C)c4)nc3c2)c1.Cl (stereo not drawn) [Compound 20] | 61.7 | 4680 | <5 | > 10000 | – | –
COc1cc(OC)cc(C(CCN(C)C)c2ccc3ncc(-c4cnn(C)c4)nc3c2)c1.Cl (stereo not drawn) [Compound 21] | 67.6 | > 1000 | <5 | > 10000 | – | –
COc1cc(OC)cc(C(CCO)c2ccc3ncc(-c4cnn(C)c4)nc3c2)c1 (stereo not drawn) [Compound 22] | 51.3 | > 1000 | <5 | > 10000 | – | –
COc1cc(OC)cc(C(CC(=O)NC(C)C)c2ccc3ncc(-c4cnn(C)c4)nc3c2)c1 (stereo not drawn) [Compound 23] | > 1000 | > 1000 | <5 | > 10000 | – | –
COc1cc(OC)cc(C(CC(C)(O)CNC(C)C)c2ccc3ncc(-c4cnn(C)c4)nc3c2)c1.Cl (stereo not drawn) [Compound 25] | 708 | 562 | <5 | > 10000 | – | –
Cn1cc(-c2cnc3ccc(C(O)c4ccccc4)cc3n2)cn1 (stereo not drawn) [Compound 28] | 3720 | 1580 | <5 | > 10000 | – | –
